Consider five molecules from US20100311714A1, “1H-IMIDAZO[4,5-c]QUINOLINONE COMPOUNDS” (priority 2009, published 2010).

pIC50: −log10 of the molar value.

What all share (assay type): cell-based
In experiment [1] the test system is PKB Ser473 phosphorylation in Rat1-myr-HA-p110 beta cells. Briefly: Reverse protein array, PKB Ser473 phosphorylation in Rat1-myr-HA-p110 beta cells. The following applies: Rattus norvegicus, 0.5 h, 30 minutes compound incubation, read-out: p-PKB/IC50_beta. The method, then:
(§1) No. 15140-114) and 10 μg/ml Puromycine (Sigma, cat. No. P9620).
(§2) The Rat1-myr-HA-p110 alpha, beta and delta cells were trypsinized and counted with a CASY TT cell counter (Schärfe System GmbH, Reutlingen Germany). The cells were diluted in fresh DMEM complete medium and 3×10^4 cells/150 μl/well seeded in 96-well TPP-tissue culture plates (TPP, cat. No. 92096). The plates were incubated at 37° C. and 5% CO2 under humidified condition for at least 20 h. Compound of formula I working solutions were prepared freshly as serial 8 step dilutions (vol/vol) in DMSO on the day of the experiment. The working solutions were further diluted 1/500 in cell culture medium to get final compound concentrations of 10, 3.333, 1.111, 0.370, 0.123, 0.041, 0.014, 0.005 μM. The final DMSO concentration was kept constant at 0.2%. cell culture medium containing 0.2% DMSO was used as vehicle treatment control. Post incubation, the cells were treated with the serial compound dilution. 50 μl of the compound medium mixture was added to the wells containing cells and 150 μl DMEM medium and incubated for 30 minutes (37° C., 5% CO2). After 30 minutes of incubation, the medium mixture was quickly removed by aspiration. For cell lysis, a mixture of 10% CLB1 CeLyA lysis buffer (Zeptosens, cat. No. 9000), 90% CSBL1 CeLyA spotting buffer (Zeptosens, cat. No. 9020) was freshly prepared and supplemented with 1% Octyl β-D-glucopyranoside (SIGMA, cat. No. 08001-5G) and 1 mM Na-Orthovanadate (Sigma, cat No. S-6508). 50 μl of the described lysis buffer mix was added to each well, followed by 10 minutes of incubation on ice. After an additional freeze-thaw cycle, another 50 μl of the lysis buffer mix without Octyl β-D-glucopyranoside was added to the wells, and 90 μl of the cell lysate was transferred to a 96-well V-bottom plate (Fisher Scientific, cat. No. 6067Y), followed by a centrifugation step (5 min, 1500 rpm at 19° C. in an Eppendorf 5810R centrifuge) to remove the unlysed cell debris.
(§3) The samples were spotted onto ZeptoMARK® PWG protein microarray chips (Zeptosens, Witterswil, Switzerland) with the piezoelectric microdispense-based, non-contact Nano-Plotter 2.1 (GeSiM, Grosserkmannsdorf, Germany). Each sample was spotted at 4 different sample concentrations (d1=100%, d2=75%, d3=50%, d4=25%) by diluting the cell lysate with the corresponding volume of lysis buffer mix. After spotting the ZeptoMARK® protein microarrays, the chips are incubated for 1 hour at 37° C. To receive a uniform blocking result, the CeLyA blocking buffer BB1 (Zeptosens, cat. No. 9040) is administered via an ultrasonic nebulizer. After 20 minutes of blocking the chips are extensively rinsed with deionized water (Milli-Q quality, 18MΩ×cm) and dried in a nitrogen air flow.
(§4) After the sample spotting and blocking procedure, the ZeptoMARK® chips were transferred to the ZeptoCARRIER (Zeptosens, cat. No. 1100), whose six flow cells individually address the six arrays on a chip, and washed twice with 200 μl CAB1 CeLyA assay buffer (Zeptosens, cat. No. 9032). The assay buffer was then aspirated and each compartment incubated with 100 μl of the primary target antibody (pAkt Ser473; CST#9271) at RT over night. Post incubation, the primary antibody was removed, the arrays washed twice with CAB1 buffer and further incubated with 100 μl of Alexa fluor 647-labeled anti rabbit IgG Fab fragments (Invitrogen; #Z25305) for one hour at RT in the dark. After incubation, the arrays were washed twice with 200 μl CAB1 buffer. The fluorescence of the target-bound Fab fragments is read out on the ZeptoReader (Zeptosens, Witterswil, Switzerland) using a laser (excitation wavelength 635 nm) and a CCD camera. The fluorescence signal was assessed with exposure times of 1, 3, 5 and 10 seconds, depending on the intensity of the signal. The resulting four images taken per array are stored as 16-bit TIF files. […]

Experiment [2] deals with PKB Ser473 phosphorylation in Rat1-myr-HA-p110 delta cells. Description: Reverse protein array, PKB Ser473 phosphorylation in Rat1-myr-HA-p110 delta cells. The settings on record: Rattus norvegicus, 0.5 h, 30 minutes compound incubation, read-out: p-PKB/IC50_delta. The method, then: as §1, §2, §3, §4
The test system of experiment [3] is PKB Ser473 phosphorylation in Rat1-myr-HA-p110 alpha cells. Briefly: Reverse protein array, PKB Ser473 phosphorylation in Rat1-myr-HA-p110 alpha cells. The settings on record: Rattus norvegicus, 0.5 h, 30 minutes compound incubation, read-out: p-PKB/IC50_alpha. The method, then: as §1, §2, §3, §4

`CNc1ccc(-c2ccc3ncc4c(c3c2)n(-c2ccc(OC)nc2C)c(=O)n4C)cn1` [Example 11.2, 1-(6-Methoxy-2-methyl-pyridin-3-yl)-3-methyl-8-(6-methylamino-pyridin-3-yl)-1,3-dihydro-imidazo[4,5-c]quinolin-2-one]: the pIC50 in experiment [1] is 7.82; in experiment [2], 7.50; in experiment [3], 8.16.

On to `CNc1ncc(-c2ccc3ncc4c(c3c2)n(-c2ccc(OC)nc2C)c(=O)n4C)cn1` [Example 11.3, 1-(6-Methoxy-2-methyl-pyridin-3-yl)-3-methyl-8-(2-methylamino-pyrimidin-5-yl)-1,3-dihydro-imidazo[4,5-c]quinolin-2-one], for which the pIC50 was 7.74 in experiment [1], 7.63 in experiment [2] and 8.05 in experiment [3].

For the molecule `COc1ccc(-n2c(=O)n(C)c3cnc4ccc(-c5cnc(N(C)C)nc5)cc4c32)c(C)n1` [Example 11.4, 8-(2-Dimethylamino-pyrimidin-5-yl)-1-(6-methoxy-2-methyl-pyridin-3-yl)-3-methyl-1,3-dihydro-imidazo[4,5-c]quinolin-2-one], the pIC50 was 6.90 in experiment [1], 6.87 in experiment [2] and 7.06 in experiment [3].

Consider `COc1ccc(-c2ccc3ncc4c(c3c2)n(-c2ccc(OC)nc2C)c(=O)n4C)cn1` [Example 11.5, 1-(6-Methoxy-2-methyl-pyridin-3-yl)-8-(6-methoxy-pyridin-3-yl)-3-methyl-1,3-dihydro-imidazo[4,5-c]quinolin-2-one], for which the values for the pIC50 in experiment [1], in experiment [2] and in experiment [3] were 7.39, 7.17 and 7.77, respectively.

On to `COc1ccc(-n2c(=O)n(C)c3cnc4ccc(-c5cnc(N)c(C(F)(F)F)c5)cc4c32)c(C)n1` [Example 11.6, 8-(6-Amino-5-trifluoromethyl-pyridin-3-yl)-1-(6-methoxy-2-methyl-pyridin-3-yl)-3-methyl-1,3-dihydro-imidazo[4,5-c]quinolin-2-one], for which the pIC50 in experiment [1] was 7.89; in experiment [2] it was 7.81; in experiment [3] it was 8.21.
